According to PubChem BioAssay AID1419 (Emory University Molecular Libraries Screening Center, 2008):
pIC50: −log10 of the molar value. Activity calls are given as the source filed them. How the calls were made is not given here.

Test: EBV protein-peptide binding inhibitors, dose response, biochemical, fluorescence polarization (AID 1419)
Details: cell-free protein-peptide binding, 2 h; for fold change: measured here: P channel fold over control, at 54 µM

SMILES | pIC50 | fold change | IC50
CCN(CC)C(=O)CSc1nnc2nnc3cc(Cl)ccc3n12 | 5.36 | 3.1 | –
Cc1cc([N+](=O)[O-])ccc1-c1ccc(/C=N/NC(=O)Cc2ccccc2)o1 | 5.22 | 10.6 | –
O=[N+]([O-])c1ccccc1/C=C/C=N/n1c(-c2ccc(Cl)cc2)n[nH]c1=S | – | 0.947 | > 54 µM (inactive)
N#C/C(=C\C1=C(N2CCOCC2)C(=C\c2ccccc2)/CC1)C(=O)Nc1ccccc1F | 5.91 | 2.94 | –
OCCCc1nc2n(n1)C(c1cccs1)C=C(c1ccccc1)N2 (configuration not stated) | > 6.38 | 43.2 | –
CCn1c(O)c(C=Nc2ccc(N3CCOCC3)cc2)c(=O)n(CC)c1=S | 5.31 | 36.6 | –
COc1ccc(Nc2nc(=O)c3cc([N+](=O)[O-])ccc3s2)cc1 | – | 0.377 | > 54 µM (inactive)
COc1ccccc1NC(=O)CC(c1ccc(OC(C)C)cc1)c1ccccc1OC (configuration not stated) | – | 0.927 | > 54 µM (inactive)
O=S(=O)(Nc1nc2ccccc2nc1N1CCN(c2ccccn2)CC1)c1ccc(Cl)cc1 | – | 2.14 | > 54 µM (inactive)
Cc1cc(N(CCCl)CCCl)ccc1/C=N/NC(=O)c1ccco1 | – | 1.06 | > 54 µM (inactive)
O=Cc1ccc2noc(-c3ccc(F)cc3)c2c1 | 5.83 | 5.46 | –
COc1ccc(N=Cc2c(O)n(Cc3ccccc3)c(=S)[nH]c2=O)c(OC)c1 | – | 3.88 | > 54 µM (inactive)
Cn1cc(/C=C2\SC(=S)N(NC(=O)c3cccc(Cl)c3)C2=O)c2ccccc21 | 5.37 | 8.23 | –
COC(=O)c1c(=O)n(O)c2ccc(OC)cc2[n+]1[O-] | 5.33 | 2.93 | –
CN(N=Nc1ccc([N+](=O)[O-])cc1)c1ccccc1 | 5.40 | 61.8 | –
COC(=O)CN1C(=S)N(c2ccc(OC)cc2)C(=O)/C1=C/c1ccc(N2CCOCC2)cc1 | 5.18 | 2.83 | –
Cc1cc(S(=O)(=O)Nc2nc(CN3CCOCC3)nc3sc4c(c23)CCCC4)ccc1F | – | 1.04 | > 54 µM (inactive)
COC(OC)c1ccnc(-c2ccc(OC(=O)c3cccs3)cc2)n1 | – | 0.937 | > 54 µM (inactive)
Cc1c2ccccc2nc2c(F)c(NCCO)c(F)c(F)c12 | > 6.38 | 40.1 | –
CC(C)Oc1ccc(NC(=O)CCC(=O)O)cc1 | – | 1.01 | > 54 µM (inactive)
CCOC(=O)/C(=C/c1ccc(N2CCC(c3ccccc3)=N2)cc1)C(C)=O | 5.42 | 11.8 | –

SMILES | pIC50 | fold change | IC50
CN1CCCc2cc3c(C(F)(F)F)cc(=O)oc3nc21 | > 6.38 | 18.4 | –
C/C(N)=C(/C#N)C(=O)CSc1nnc(Nc2ccccc2)s1 | – | 0.95 | > 54 µM (inactive)
CCOC(=O)Cn1c(=O)c(-c2cc(Br)ccc2N)nc2ccccc21 | – | 6.44 | > 54 µM (inactive)
CN(C)c1ccc(/C=C2\CCC/C(=C\c3ccccc3)C2=O)cc1 | 4.84 | 10.6 | –
CSC1=NSC2=NC(=O)/C(=C/c3coc4ccc(O)cc4c3=O)C(=N)N12 | 5.60 | 63.6 | –
CC1=CC(=C(C#N)c2nc3ccccc3s2)C=C(C)N1CC1CCCO1 (configuration not stated) | 5.41 | 9.43 | –
O=S(=O)([N-]c1nc2ccccc2nc1-[n+]1ccc(-c2ccncc2)cc1)c1ccccc1 | 5.04 | 3.54 | –
Nc1c(C(=O)NCC2CCCO2)sc2nc3c(c(-c4ccco4)c12)CC/C3=C\c1ccco1 (configuration not stated) | > 6.38 | 3.22 | –
Nc1ccc2c3c(cccc13)C(=O)N(c1ccccc1)C2=O | > 6.38 | 200 | –
Cc1cccn2c(=O)c(/C=C3\SC(=S)N(CC(C)C)C3=O)c(NCCCOC(C)C)nc12 | – | 1.37 | > 54 µM (inactive)
O=C(Nc1ccc(Cl)c(Cl)c1)Nc1nnc(-c2ccncc2)s1 | 5.60 | 1.23 | –
CCc1cccc2cc3c(N)c(C(=O)Nc4ccc(S(=O)(=O)N5CCCC5)cc4)sc3nc12 | 5.79 | 8.07 | –
C=CCn1c(O)c(N=Nc2ccccc2C)c2ccccc21 | 4.83 | 12.4 | –
O=c1c(/C=N/Nc2ccccc2)c(Sc2nnnn2-c2ccccc2)nc2ccccn12 | 5.33 | 37.5 | –
CCOc1ccc(-c2nn(-c3ccccc3)cc2/C=C2\SC(=S)N(C3CCS(=O)(=O)C3)C2=O)cc1 (configuration not stated) | 5.67 | 10.9 | –
CCCn1c(SCCc2ccccc2)nc2c1c(=O)[nH]c(=O)n2C | – | 0.953 | > 54 µM (inactive)
Fc1ccc(C2=CC(c3ccc(Br)o3)n3ncnc3N2)cc1 (configuration not stated) | 5.58 | 3.2 | –
CCNc1cccc2c1C(=O)N(C)C2=O | 6.02 | 24.2 | –
O=[N+]([O-])c1ccc(Sc2cccc3cccnc23)c2cccnc12 | 4.53 | 2.58 | –
Cc1nc2nc(-c3cccs3)cn2nc1C | 5.73 | 6.46 | –
